From patent US20160348148A1, “MICROWELL PLATE FOR HIGH-THROUGHPUT DETECTION AND APPLICATION THEREOF” (SHANGHAI JIAOTONG UNIVERSITY, priority 2013, published 2016)
Read-outs that look alike come from different tables or passages of the source.

Experiments:
[1] = target: T1, hCBS (Homo sapiens, UniProt P35520); assay: High-throughput screening of hCBS enzymatic reaction inhibitors (H2S detection with DTNB in microwell plate); type: biochemical
T1 construct: made in house
T1 sequence (P35520 1-551): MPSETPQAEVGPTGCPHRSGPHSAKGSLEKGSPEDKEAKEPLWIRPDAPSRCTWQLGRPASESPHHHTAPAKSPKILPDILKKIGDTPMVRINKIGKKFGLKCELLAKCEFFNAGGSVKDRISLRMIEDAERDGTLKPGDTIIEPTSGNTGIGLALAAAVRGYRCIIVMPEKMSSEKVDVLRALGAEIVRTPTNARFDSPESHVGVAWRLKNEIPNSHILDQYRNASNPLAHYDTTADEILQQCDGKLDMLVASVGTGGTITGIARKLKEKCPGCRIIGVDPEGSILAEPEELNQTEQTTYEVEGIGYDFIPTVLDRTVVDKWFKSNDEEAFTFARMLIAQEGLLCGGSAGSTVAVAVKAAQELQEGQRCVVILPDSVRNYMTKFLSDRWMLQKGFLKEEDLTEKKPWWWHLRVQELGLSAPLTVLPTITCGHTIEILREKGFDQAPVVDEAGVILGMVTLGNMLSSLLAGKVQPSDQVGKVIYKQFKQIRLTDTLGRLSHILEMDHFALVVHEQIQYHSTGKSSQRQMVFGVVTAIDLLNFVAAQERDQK

[2] = target: T2, hDDC (Homo sapiens, UniProt P20711); assay: IC50 to hDDC (specificity test, coupled enzyme assay); type: biochemical
T2 construct: made in house
T2 sequence (P20711 1-480): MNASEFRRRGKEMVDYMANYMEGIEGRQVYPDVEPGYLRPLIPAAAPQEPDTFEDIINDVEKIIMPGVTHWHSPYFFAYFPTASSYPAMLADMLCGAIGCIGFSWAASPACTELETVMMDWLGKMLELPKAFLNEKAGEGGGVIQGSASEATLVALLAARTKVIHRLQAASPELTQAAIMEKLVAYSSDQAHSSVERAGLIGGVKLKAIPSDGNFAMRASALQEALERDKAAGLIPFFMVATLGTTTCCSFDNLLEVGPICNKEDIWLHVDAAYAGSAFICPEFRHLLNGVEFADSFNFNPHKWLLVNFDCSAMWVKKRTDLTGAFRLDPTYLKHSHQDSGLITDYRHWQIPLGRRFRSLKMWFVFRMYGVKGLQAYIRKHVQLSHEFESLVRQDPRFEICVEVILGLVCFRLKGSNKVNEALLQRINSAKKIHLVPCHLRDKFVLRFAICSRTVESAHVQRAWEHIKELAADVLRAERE
Procedure: By referring to the experiment method in Assay Drug Dev Technol. […] Smithson, IC50 of the 9 compounds to hDDC was determined.

[3] = 100 nM hCBS, 4 mM L-Cys, 4 mM D,L-HCys, pH 8.6, 60 min at 37° C., read-out: IC50 to hCBS

SMILES	IC50 [1, 3] [µM]	IC50 ([2]; read-out: IC50 to hDDC) [µM]	IC50 [1] [µM]	IC50 [2] [µM]
N=C(N)NCCCS(=O)(=O)Nc1ccc(Nc2c3ccccc3nc3cc([N+](=O)[O-])ccc23)cc1 [Compound 7]	40	60	–	–
COc1ccc2c(NCCCCCCNc3c4ccccc4nc4cc(OC)ccc34)c3ccccc3nc2c1 [Compound 6]	30	110	–	–
C/C1=C2/[N]([Co][OH])[C@H]([C@H](CC(N)=O)[C@@]2(C)CCC(=O)NC[C@@H](C)OP(=O)(O)OC2[C@@H](CO)O[C@H](n3cnc4cc(C)c(C)cc43)[C@H]2O)[C@]2(C)N=C(/C(C)=C3N=C(/C=C4N=C1[C@@H](CCC(N)=O)C\4(C)C)[C@@H](CCC(N)=O)[C@]\3(C)CC(N)=O)[C@@H](CCC(N)=O)[C@]2(C)CC(N)=O (stereo partly shown) [Compound 8, Hydroxocobalamin, reference compound]	–	–	35	150
Cn1ncnc2c(=O)n(C)c(=O)nc1-2 [Compound 9]	12	–	–	–
CC1CCN(C2=C(Cl)C(=O)c3ccccc3C2=O)CC1 [Compound 5]	20	300	–	–

Now from value to compound, other results behind:

IC50 [1, 3] [µM]	IC50 ([2]; read-out: IC50 to hDDC) [µM]	SMILES	IC50 [1] [µM]	IC50 [2] [µM]
15	25	CCN(CC)c1ccc(C(=C2C=CC(=[N+](CC)CC)C=C2)c2ccc(N(CC)CC)cc2)cc1 [Compound 3]	–	–
8	16	CCCCCCCCCCCCCCCC[N+](C)(C)CCN(Cc1ccc(OC)cc1)c1ncccn1 [Compound 2]	–	–
